These results are taken from PMC9715946, “Bioenhancing effects of piperine and curcumin on triterpenoid pharmacokinetics and neurodegenerative metabolomes from Centella asiatica extract in beagle dogs” (Scientific Reports, 2022).

A word on the Tmax: it is the time at which the peak concentration occurs.

Data set [1] is described as follows: Pharmacokinetic study: plasma triterpenoids by LCMS, non-compartmental analysis. Further details: species or system beagle dogs. As to conditions: dog, in vivo; for Tmax: 20 mg/kg. The text has this: The proposed animal experiment was approved by the Institutional Animal Care and Use Committee of the Chulalongkorn University Laboratory Animal Centre (CULAC), Chulalongkorn University, Bangkok, Thailand (Protocol number 2073029, Approval date: […] The dogs were fed with a normal dog diet (Beauty Pro, Nippon Pet Food Co. Ltd.) once a day and water ad libitum. Two groups of four dogs were randomly used with a 2-week washout period. […] After receiving the test substances, the dogs were transferred to a metabolic cage for 48 h for the collection of urine and faeces. All animal procedures were performed in accordance with the ethical principles, regulations, and guidelines for the use of animals (National Research Council of Thailand, 2015). This study was conducted in compliance with the ARRIVE guidelines. Four experimental groups received the oral test compound once daily for seven consecutive days, as follows: ([…] 20 […] 20 mg/kg + piperine 20 mg/kg; ([…] 20 mg/kg + curcumin 20 mg/kg; and (iv) […] 20 mg/kg + piperine 20 mg/kg + curcumin 20 mg/kg. The test substance powders received from the suppliers were packed into gelatine capsule, and the dogs were orally administered two to four capsules in the morning, according to the number of test substances required in the experimental plan. Blood samples (2-3 mL) were withdrawn from the cephalic or saphenous vein using an IV catheter and placed in heparinised tubes. […] The pre-dose and 24 h post-dose blood chemistry parameters were determined by the Small Animal Hospital, Faculty of Veterinary Science, Chulalongkorn University for all dogs, in order to monitor the health status of the dogs. […] All biological samples were kept at - 80 °C until required for analysis. Where the concentration of the samples exceeded the linear calibration curve, blank matrices were used to dilute the sample before protein precipitation. Methanol was used to extract the major triterpenoids from the biological samples for LCMS analysis. In brief, 50 μL of the biological sample was added to 200 μL methanol containing glycyrrhizin and glycyrrhetinic acid as internal standards. The mixture was then centrifuged at 12,000g for 10 min at 4 °C to collect the supernatant, and 10 μL of the supernatant was injected into the LCMS system to measure the concentration of the targeted analytes. […] A Synergi Fusion-RP C18 column (Phenomenex Inc.) was selected as the stationary phase and maintained at 40 °C in the column oven. […] The lower limit of quantification (LLOQ) of each of the compounds in this study ranged from 1.00 to 10.00 μg/L, according to the compound. After oral administration, pharmacokinetic parameters were determined by PK solution software version 2.0 (Submit Research Services, USA.) using non-compartmental analysis. The maximum plasma concentration (Cmax) and time to reach maximum plasma concentration (Tmax) were calculated directly from the concentration-time curves. The area under the curve from time 0-24 h (AUC0-24) was determined by the trapezoidal method and extrapolated to time infinity by the equation AUC0-inf = AUC0-24 + (Clast/kel), where Clast is the last measurable plasma concentration and kel is the elimination rate constant. The rate of […] was equal to - 2.303 × slope. The mean residence time (MRT) was calculated as AUMC0-inf/AUC0-inf, where AUMC0-inf is the area under the first moment curve. The volume of distribution (Vd) was equivalent to dose/C0, where C0 is the concentration of drug measured in plasma at time zero. The total clearance (CL) was equal to dose/AUC0-inf, and the elimination half-life was determined by 0.693/kel. […] The difference in blood chemistry parameters pre-dose and post-dose was compared using Student's t test. SPSS version 22.0 (IBM Corp.) was used to determine statistically significant differences between the experimental groups. […]

The conditions of data set [2]: piperine in combination, self-emulsifying drug delivery systems; cited from earlier work.
The conditions of data set [3]: in combination with 100 mg/kg of curcumin; cited from earlier work.
Details of data set [4]: method as in PMID 19934593. Particulars: pre-treatment with curcumin 60 mg/kg; cited from earlier work.

Turning to `C[C@H]1[C@H](C)CC[C@]2(C(=O)O)CC[C@]3(C)C(=CC[C@@H]4[C@@]5(C)C[C@@H](O)[C@H](O)[C@@](C)(CO)[C@@H]5CC[C@]43C)[C@H]12` [Asiatic acid, asiatic acid], in data set [1] (male, beagle), the “Increase of systemic exposure (Cmax and AUC) by Centell-S + piperine compared to Centell-S alone” value lay in the range of 1.5 to 3.0 fold. The Accumulation ratio in data set [1] (male, beagle, 7 days) is 1.05–1.44. The Tmax in data set [1] (male, beagle, po, Time to reach maximum plasma concentration) was 2 to 4 h; in data set [1] (male, beagle, po, Tmax), 2 h.

As for `C=C(C)[C@@H]1CCC(C)=C[C@H]1c1c(O)cc(CCCCC)cc1O` [cannabidiol], in data set [2], the “Improvement of oral bioavailability compared to the control group” value is listed as “approximately 2.5 fold”.

As to `CC(=O)O[C@@]12CO[C@@H]1C[C@H](O)[C@@]1(C)C(=O)[C@H](O)C3=C(C)[C@@H](OC(=O)[C@H](O)[C@@H](NC(=O)OC(C)(C)C)c4ccccc4)C[C@@](O)([C@@H](OC(=O)c4ccccc4)[C@H]21)C3(C)C` [docetaxel], the “Increase of bioavailability compared to the control group” value in data set [3] is listed as “approximately eight-fold”.

Regarding `CCn1cc(C(=O)O)c(=O)c2cc(F)c(N3CCNCC3)cc21` [norfloxacin], in data set [4], the “Increase of AUC compared with the control group” value is “approximately two-fold”.

For madecassoside, in data set [1], the “Increase of systemic exposure (Cmax and AUC) by Centell-S + piperine compared to Centell-S alone” value is listed as 1.5 to 3.0 fold; the “Time to reach maximum plasma concentration” value is 2 to 4 h. Besides, the “Time to reach maximum plasma concentration” value in data set [1] (po) fell in the range of 1 to 2 h.
